The values that follow are results of earlier work, collected in patent US11590090B2, “Acetaminophen formulation with protection against toxic effects of overdose” (Anzen Pharmaceuticals, LLC, priority 2019, dated 2023).

The test system of the data set is cytochrome P450 mixed-function oxygenase system. Particulars: upon ingestion.

As to `CC(=O)Nc1ccc(O)cc1` [acetaminophen], the “Fraction metabolized in the liver by cytochrome P450 to NAPQI” value is “about 5%”.
